# Assay results published in US12157746B2, “Tetrahydro-1H-pyrazino[2,1-a]isoindolylquinoline compounds for the treatment of autoimmune disease” (F. HOFFMANN-LA ROCHE AG, priority 2018, dated 2024).
# Target: T1, human TLR7 (Homo sapiens, UniProt Q9NYK1)
# T1 sequence (Q9NYK1 27-1049): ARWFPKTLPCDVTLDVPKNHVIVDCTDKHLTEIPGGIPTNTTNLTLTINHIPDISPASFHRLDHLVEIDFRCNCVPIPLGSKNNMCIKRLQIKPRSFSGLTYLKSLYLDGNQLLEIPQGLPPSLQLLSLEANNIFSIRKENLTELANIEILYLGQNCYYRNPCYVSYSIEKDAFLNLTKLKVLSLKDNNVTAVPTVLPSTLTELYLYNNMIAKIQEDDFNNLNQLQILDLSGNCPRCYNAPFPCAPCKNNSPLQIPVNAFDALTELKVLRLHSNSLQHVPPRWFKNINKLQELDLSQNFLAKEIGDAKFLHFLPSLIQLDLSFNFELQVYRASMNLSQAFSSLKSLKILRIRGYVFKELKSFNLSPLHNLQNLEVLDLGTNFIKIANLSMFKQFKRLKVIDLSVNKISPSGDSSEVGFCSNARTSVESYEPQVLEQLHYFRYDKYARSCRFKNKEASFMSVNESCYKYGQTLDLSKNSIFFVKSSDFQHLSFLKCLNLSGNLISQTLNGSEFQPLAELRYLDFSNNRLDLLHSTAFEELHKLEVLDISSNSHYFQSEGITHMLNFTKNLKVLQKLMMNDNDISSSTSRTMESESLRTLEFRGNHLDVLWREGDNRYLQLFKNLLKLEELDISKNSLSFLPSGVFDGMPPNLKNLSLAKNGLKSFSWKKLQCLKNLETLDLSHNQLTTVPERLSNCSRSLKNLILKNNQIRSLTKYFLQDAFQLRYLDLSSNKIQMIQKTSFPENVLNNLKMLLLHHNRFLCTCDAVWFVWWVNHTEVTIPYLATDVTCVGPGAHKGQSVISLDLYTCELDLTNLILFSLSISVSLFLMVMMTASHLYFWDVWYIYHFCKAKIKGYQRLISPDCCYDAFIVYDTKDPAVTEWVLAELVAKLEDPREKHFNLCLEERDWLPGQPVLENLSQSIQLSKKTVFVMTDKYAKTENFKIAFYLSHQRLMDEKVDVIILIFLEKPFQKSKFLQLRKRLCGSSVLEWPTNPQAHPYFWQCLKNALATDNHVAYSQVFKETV
# Experiment: HEK293-Blue-hTLR-7 cells assay
# Type: cell-based
# Details: HEK293-Blue-hTLR7 cells, R848 stimulation, 20 hrs, SEAP reporter; read-out: HEK/hTLR7 IC50
# Summary of the method: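 HEK293-Blue-hTLR7 cells (NF-κB/AP-1-driven SEAP reporter) incubated with serially diluted compound (1% DMSO final) and R848 agonist for 20 h at 37 °C. Supernatant SEAP measured with QUANTI-Blue (2 h, 37 °C) by absorbance at 620-655 nm; antagonism seen as reduced reporter.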
row,IC50 [µM],SMILES
1,0.0228,"Cc1ccc(N2C[C@@H](C)N3Cc4cc(N[C@H]5CNC[C@H]5F)ccc4[C@H]3C2)c2nccnc12 [Example 76, (4R,10bS)—N-[(3S,4R)-4-fluoropyrrolidin-3-yl]-4-methyl-2-(8-methylquinoxalin-5-yl)-3,4,6,10b-tetrahydro-1H-pyrazino[2,1-a]isoindol-8-amine]"
2,0.0026,"C[C@@H]1CN(c2ccc(C#N)c3ncccc23)C[C@@H]2c3cc(F)c(N4CC5(CNC5)C4)cc3CN12 [Example 84, 5-[(4R,10bS)-8-(2,6-diazaspiro[3.3]heptan-2-yl)-9-fluoro-4-methyl-3,4,6,10b-tetrahydro-1H-pyrazino[2,1-a]isoindol-2-yl]quinoline-8-carbonitrile]"
3,0.0715,"C[C@H]1CN(c2ccc(C#N)c3ncccc23)C[C@H]2c3ccc(N4CCNCC4)cc3CN12 [Example 2, 5-[(4S,10bR)-4-methyl-8-piperazin-1-yl-3,4,6,10b-tetrahydro-1H-pyrazino[2,1-a]isoindol-2-yl]quinoline-8-carbonitrile]"
4,0.0111,"C[C@@H]1CN(c2ccc(C#N)c3ncccc23)C[C@@H]2c3ccc(N[C@@H]4CNCCOC4)cc3CN12 [Example 56A, 5-[(4R,10bS)-4-methyl-8-[[(6R)-1,4-oxazepan-6-yl]amino]-3,4,6,10b-tetrahydro-1H-pyrazino[2,1-a]isoindol-2-yl]quinoline-8-carbonitrile]"
5,0.0033,"C[C@@H]1CN(c2ccc(C#N)c3ncccc23)C[C@@H]2c3ccc(NCCN4CC[C@H](O)C4)cc3CN12 [Example 68, 5-[(4R,10bS)-8-[2-[(3S)-3-hydroxypyrrolidin-1-yl]ethylamino]-4-methyl-3,4,6,10b-tetrahydro-1H-pyrazino[2,1-a]isoindol-2-yl]quinoline-8-carbonitrile]"
6,0.0126,"C[C@@H]1CN(c2ccc(C(F)(F)F)c3nccnc23)C[C@@H]2c3ccc(N[C@H]4CNC[C@H]4F)cc3CN12 [Example 77, (4R,10bS)—N-[(3S,4R)-4-fluoropyrrolidin-3-yl]-4-methyl-2-[8-(trifluoromethyl)quinoxalin-5-yl]-3,4,6,10b-tetrahydro-1H-pyrazino[2,1-a]isoindol-8-amine]"
7,< 0.0032,"C[C@@H]1CN(c2ccc(C#N)c3ncccc23)C[C@@H]2c3ccc(N4C[C@@H]5CNCCN5C4=O)cc3CN12 [Example 71, 5-[(4R,10bS)-8-[(8aS)-3-oxo-1,5,6,7,8,8a-hexahydroimidazo[1,5-a]pyrazin-2-yl]-4-methyl-3,4,6,10b-tetrahydro-1H-pyrazino[2,1-a]isoindol-2-yl]quinoline-8-carbonitrile]"
8,0.0426,"N#Cc1ccc(N2CCN3Cc4cc(N5CCNCC5)ccc4C3C2)c2cccnc12 (stereo not shown) [Example 3, 5-(8-piperazin-1-yl-3,4,6,10b-tetrahydro-1H-pyrazino[2,1-a]isoindol-2-yl)quinoline-8-carbonitrile]"
9,0.0074,"C[C@@H]1CN(c2ccc(C#N)c3ncccc23)C[C@@H]2c3cccc(N[C@H]4CNC[C@H]4F)c3CN12 [Example 81, 5-[(4R,10bS)-7-[[(3S,4R)-4-fluoropyrrolidin-3-yl]amino]-4-methyl-3,4,6,10b-tetrahydro-1H-pyrazino[2,1-a]isoindol-2-yl]quinoline-8-carbonitrile]"
10,0.0478,"Cc1ccc(N2C[C@@H](C)N3Cc4cc(N[C@H]5CNC[C@H]5F)ccc4[C@H]3C2)c2cccnc12 [Example 75, (4R,10bS)—N-[(3S,4R)-4-fluoropyrrolidin-3-yl]-4-methyl-2-(8-methyl-5-quinolyl)-3,4,6,10b-tetrahydro-1H-pyrazino[2,1-a]isoindol-8-amine]"
